Drawing on paper PMC6407917, “Identification of GSK3186899/DDD853651 as a Preclinical Development Candidate for the Treatment of Visceral Leishmaniasis” (Journal of Medicinal Chemistry, 2018), this text covers IC50 for two compounds.

The structures appear in SMILES notation. Some results are limits rather than exact numbers.

One data set deals with ACVR1 (Homo sapiens, UniProt Q04771). Briefly: biochemical. Details: species or system HEK293/K-562/placenta mixed human extract; Kinobeads chemoproteomic competition binding, quantified by TMT LC-MS/MS, dose response up to 20 uM.
In a further data set the target is IRAK3 (Homo sapiens, UniProt Q9Y616). Kind of data set: biochemical. Also noted: species or system HEK293/K-562/placenta mixed human extract; Kinobeads chemoproteomic competition binding, quantified by TMT LC-MS/MS, dose response up to 20 uM.
The target in another data set is LYN (Homo sapiens, UniProt P07948). Briefly: biochemical. Also noted: species or system HEK293/K-562/placenta mixed human extract; Kinobeads chemoproteomic competition binding, quantified by TMT LC-MS/MS, dose response up to 20 uM.
The target in the next data set is PLK1 (Homo sapiens, UniProt P53350). Kind of data set: biochemical. Also noted: species or system HEK293/K-562/placenta mixed human extract; Kinobeads chemoproteomic competition binding, quantified by TMT LC-MS/MS, dose response up to 20 uM.
For another data set, the target named is T1, hERG (Homo sapiens, UniProt Q12809).
T1 construct: gene KCNH2; in vitro hERG assay, standard protocol
Briefly: in vitro hERG assay, standard protocol. The following applies: read-out: 1. The class given is cell-based. The source says:
in vitro hERG assay, standard protocol on hERG
(hERG is a cardiac potassium channel; its block is linked to QT prolongation.)

Another data set concerns the target CYP3A4 (Homo sapiens, UniProt P08684). Kind of data set: midazolam marker-substrate inhibition assay, LC-MS/MS. The class given is biochemical. The source says:
midazolam marker-substrate inhibition assay, LC-MS/MS on CYP3A4

The next data set concerns the target Cdk4 (Homo sapiens, UniProt P11802). The following applies: mixed human cell/tissue extract; maximum concentration 20 μM.
The next data set has as its target CAMKK2 (Homo sapiens, UniProt Q96RR4). Kind of data set: biochemical. Details: species or system HEK293/K-562/placenta mixed human extract; Kinobeads chemoproteomic competition binding, quantified by TMT LC-MS/MS, dose response up to 20 uM.
The target in the next data set is CDK5 (Homo sapiens, UniProt Q00535). Kind of data set: biochemical. Also noted: species or system HEK293/K-562/placenta mixed human extract; Kinobeads chemoproteomic competition binding, quantified by TMT LC-MS/MS, dose response up to 20 uM.
Another data set deals with CSNK1A1 (Homo sapiens, UniProt P48729). Briefly: biochemical. Also noted: species or system HEK293/K-562/placenta mixed human extract; Kinobeads chemoproteomic competition binding, quantified by TMT LC-MS/MS, dose response up to 20 uM.
Another data set has as its target DAPK1 (Homo sapiens, UniProt P53355). Briefly: biochemical. Also noted: species or system HEK293/K-562/placenta mixed human extract; Kinobeads chemoproteomic competition binding, quantified by TMT LC-MS/MS, dose response up to 20 uM.
Another data set concerns the target DDR2 (Homo sapiens, UniProt Q16832). Briefly: biochemical. Details: species or system HEK293/K-562/placenta mixed human extract; Kinobeads chemoproteomic competition binding, quantified by TMT LC-MS/MS, dose response up to 20 uM.
The target of a further data set is FYN (Homo sapiens, UniProt P06241). Briefly: biochemical. Also noted: species or system HEK293/K-562/placenta mixed human extract; Kinobeads chemoproteomic competition binding, quantified by TMT LC-MS/MS, dose response up to 20 uM.
Another data set has as its target LATS1 (Homo sapiens, UniProt O95835). Briefly: biochemical. Details: species or system HEK293/K-562/placenta mixed human extract; Kinobeads chemoproteomic competition binding, quantified by TMT LC-MS/MS, dose response up to 20 uM.
For a further data set, the target named is NEK6 (Homo sapiens, UniProt Q9HC98). Kind of data set: biochemical. Also noted: species or system HEK293/K-562/placenta mixed human extract; Kinobeads chemoproteomic competition binding, quantified by TMT LC-MS/MS, dose response up to 20 uM.
The next data set addresses NUAK1 (Homo sapiens, UniProt O60285). Kind of data set: biochemical. Also noted: species or system HEK293/K-562/placenta mixed human extract; Kinobeads chemoproteomic competition binding, quantified by TMT LC-MS/MS, dose response up to 20 uM.
The target in another data set is PDXK (Homo sapiens, UniProt O00764). Kind of data set: biochemical. Also noted: species or system HEK293/K-562/placenta mixed human extract; Kinobeads chemoproteomic competition binding, quantified by TMT LC-MS/MS, dose response up to 20 uM.
Another data set concerns the target PTK2B (Homo sapiens, UniProt Q14289). Briefly: biochemical. Also noted: species or system HEK293/K-562/placenta mixed human extract; Kinobeads chemoproteomic competition binding, quantified by TMT LC-MS/MS, dose response up to 20 uM.
The target of a further data set is RB1CC1 (Homo sapiens, UniProt Q8TDY2). Kind of data set: biochemical. Also noted: species or system HEK293/K-562/placenta mixed human extract; Kinobeads chemoproteomic competition binding, quantified by TMT LC-MS/MS, dose response up to 20 uM.
The target of a further data set is RPS6KA6 (Homo sapiens, UniProt Q9UK32). Briefly: biochemical. Details: species or system HEK293/K-562/placenta mixed human extract; Kinobeads chemoproteomic competition binding, quantified by TMT LC-MS/MS, dose response up to 20 uM.
The target in another data set is STK4 (Homo sapiens, UniProt Q13043). Kind of data set: biochemical. Details: species or system HEK293/K-562/placenta mixed human extract; Kinobeads chemoproteomic competition binding, quantified by TMT LC-MS/MS, dose response up to 20 uM.

DAPK1, sequence (P53355 whole entry): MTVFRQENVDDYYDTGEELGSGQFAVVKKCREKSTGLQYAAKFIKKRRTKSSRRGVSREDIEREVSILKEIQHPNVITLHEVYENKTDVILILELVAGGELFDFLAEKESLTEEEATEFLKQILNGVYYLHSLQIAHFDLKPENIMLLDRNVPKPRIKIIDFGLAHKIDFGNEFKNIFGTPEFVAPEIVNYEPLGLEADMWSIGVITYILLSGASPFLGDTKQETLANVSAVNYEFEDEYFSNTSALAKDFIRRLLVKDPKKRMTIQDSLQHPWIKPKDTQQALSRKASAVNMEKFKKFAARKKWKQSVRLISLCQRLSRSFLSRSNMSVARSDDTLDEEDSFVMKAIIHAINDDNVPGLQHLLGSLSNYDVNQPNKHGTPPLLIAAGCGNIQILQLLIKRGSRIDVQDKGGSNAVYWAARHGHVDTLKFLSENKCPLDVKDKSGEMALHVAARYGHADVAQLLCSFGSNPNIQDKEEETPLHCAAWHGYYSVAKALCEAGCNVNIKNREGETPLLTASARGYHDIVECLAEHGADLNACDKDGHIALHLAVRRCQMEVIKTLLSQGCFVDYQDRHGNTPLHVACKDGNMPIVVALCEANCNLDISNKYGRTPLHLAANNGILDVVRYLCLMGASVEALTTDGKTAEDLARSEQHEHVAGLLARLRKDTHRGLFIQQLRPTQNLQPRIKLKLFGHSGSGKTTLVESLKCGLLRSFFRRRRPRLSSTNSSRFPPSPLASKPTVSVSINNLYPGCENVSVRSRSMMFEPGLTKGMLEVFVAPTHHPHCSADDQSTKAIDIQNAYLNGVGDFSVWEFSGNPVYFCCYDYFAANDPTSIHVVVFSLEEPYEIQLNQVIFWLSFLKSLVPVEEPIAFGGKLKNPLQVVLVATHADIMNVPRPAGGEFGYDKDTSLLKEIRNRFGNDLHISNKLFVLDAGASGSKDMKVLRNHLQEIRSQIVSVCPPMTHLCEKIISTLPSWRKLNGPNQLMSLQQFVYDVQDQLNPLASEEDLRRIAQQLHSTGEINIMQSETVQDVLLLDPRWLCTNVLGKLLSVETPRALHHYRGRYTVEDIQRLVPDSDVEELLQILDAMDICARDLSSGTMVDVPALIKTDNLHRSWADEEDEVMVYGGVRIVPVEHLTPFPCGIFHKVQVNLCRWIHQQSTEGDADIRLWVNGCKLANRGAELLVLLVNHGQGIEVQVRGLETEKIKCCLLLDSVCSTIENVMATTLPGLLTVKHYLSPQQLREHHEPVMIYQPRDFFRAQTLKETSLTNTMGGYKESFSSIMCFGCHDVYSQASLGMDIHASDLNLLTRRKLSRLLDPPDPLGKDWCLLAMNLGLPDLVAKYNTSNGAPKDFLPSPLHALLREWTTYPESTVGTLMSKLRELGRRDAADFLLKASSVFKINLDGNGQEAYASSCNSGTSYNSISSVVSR
T1 sequence (Q12809 whole entry): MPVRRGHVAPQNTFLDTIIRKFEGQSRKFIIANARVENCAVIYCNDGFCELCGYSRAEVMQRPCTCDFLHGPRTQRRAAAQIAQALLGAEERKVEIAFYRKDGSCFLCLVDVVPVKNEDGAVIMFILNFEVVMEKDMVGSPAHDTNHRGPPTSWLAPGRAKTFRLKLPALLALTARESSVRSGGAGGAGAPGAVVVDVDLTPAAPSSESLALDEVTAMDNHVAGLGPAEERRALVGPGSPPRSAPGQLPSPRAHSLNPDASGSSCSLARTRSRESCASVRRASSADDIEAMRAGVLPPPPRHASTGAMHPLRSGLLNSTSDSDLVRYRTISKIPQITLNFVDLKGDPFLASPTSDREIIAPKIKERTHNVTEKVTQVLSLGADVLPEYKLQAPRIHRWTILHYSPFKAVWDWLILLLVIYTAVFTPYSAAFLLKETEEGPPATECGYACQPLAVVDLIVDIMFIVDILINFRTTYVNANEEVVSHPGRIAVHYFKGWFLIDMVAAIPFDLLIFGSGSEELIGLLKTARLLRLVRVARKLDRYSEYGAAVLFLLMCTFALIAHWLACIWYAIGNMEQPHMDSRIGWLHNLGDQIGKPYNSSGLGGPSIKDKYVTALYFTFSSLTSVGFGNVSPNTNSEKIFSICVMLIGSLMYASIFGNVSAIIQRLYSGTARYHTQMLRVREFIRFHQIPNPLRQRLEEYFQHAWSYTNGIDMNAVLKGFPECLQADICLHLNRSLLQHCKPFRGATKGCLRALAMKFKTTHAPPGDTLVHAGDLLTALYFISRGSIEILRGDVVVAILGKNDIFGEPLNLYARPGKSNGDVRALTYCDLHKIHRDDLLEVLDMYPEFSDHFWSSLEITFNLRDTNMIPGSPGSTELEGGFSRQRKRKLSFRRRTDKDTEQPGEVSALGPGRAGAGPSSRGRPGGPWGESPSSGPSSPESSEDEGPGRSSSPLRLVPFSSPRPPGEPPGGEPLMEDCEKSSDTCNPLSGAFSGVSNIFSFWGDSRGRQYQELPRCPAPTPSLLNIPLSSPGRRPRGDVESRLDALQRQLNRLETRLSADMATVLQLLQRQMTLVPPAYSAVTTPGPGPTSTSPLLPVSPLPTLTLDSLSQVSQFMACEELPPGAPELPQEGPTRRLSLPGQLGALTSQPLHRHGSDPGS
DDR2, sequence (Q16832 whole entry): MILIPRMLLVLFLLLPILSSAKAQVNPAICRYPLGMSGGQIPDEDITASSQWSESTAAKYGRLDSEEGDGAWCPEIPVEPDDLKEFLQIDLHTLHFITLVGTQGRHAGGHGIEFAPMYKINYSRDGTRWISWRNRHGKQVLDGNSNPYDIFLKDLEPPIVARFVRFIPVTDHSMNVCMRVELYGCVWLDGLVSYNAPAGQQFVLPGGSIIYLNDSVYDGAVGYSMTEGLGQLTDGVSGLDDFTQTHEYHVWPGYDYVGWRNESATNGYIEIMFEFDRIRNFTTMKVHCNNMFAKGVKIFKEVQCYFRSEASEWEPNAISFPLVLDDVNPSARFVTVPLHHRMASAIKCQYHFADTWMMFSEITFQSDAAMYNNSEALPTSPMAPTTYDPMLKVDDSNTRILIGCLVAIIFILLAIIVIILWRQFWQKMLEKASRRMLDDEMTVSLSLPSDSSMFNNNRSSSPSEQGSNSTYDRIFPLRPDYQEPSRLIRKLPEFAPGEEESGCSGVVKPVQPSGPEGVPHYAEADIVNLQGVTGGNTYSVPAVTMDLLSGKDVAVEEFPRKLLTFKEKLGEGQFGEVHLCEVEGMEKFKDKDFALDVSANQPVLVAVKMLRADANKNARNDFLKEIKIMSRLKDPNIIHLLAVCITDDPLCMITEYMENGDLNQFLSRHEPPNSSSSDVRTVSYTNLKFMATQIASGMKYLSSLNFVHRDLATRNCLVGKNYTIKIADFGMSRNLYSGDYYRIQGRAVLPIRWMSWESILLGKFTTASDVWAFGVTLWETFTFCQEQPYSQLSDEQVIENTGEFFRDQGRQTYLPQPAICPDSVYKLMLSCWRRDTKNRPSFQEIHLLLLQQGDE
ACVR1, sequence (Q04771 whole entry): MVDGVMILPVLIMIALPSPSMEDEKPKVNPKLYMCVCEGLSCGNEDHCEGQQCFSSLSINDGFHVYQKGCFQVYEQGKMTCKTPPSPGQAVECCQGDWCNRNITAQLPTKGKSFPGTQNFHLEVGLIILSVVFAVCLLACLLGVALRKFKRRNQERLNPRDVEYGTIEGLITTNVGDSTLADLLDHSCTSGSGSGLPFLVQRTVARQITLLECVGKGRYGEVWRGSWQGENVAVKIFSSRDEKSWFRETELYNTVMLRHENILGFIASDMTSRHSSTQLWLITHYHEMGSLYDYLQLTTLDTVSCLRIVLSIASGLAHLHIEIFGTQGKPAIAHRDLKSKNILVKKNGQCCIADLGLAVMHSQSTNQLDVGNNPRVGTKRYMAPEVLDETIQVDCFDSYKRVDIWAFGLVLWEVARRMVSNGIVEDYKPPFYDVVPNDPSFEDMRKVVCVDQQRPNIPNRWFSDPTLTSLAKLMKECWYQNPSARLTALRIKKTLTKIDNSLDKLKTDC
CDK5, sequence (Q00535 whole entry): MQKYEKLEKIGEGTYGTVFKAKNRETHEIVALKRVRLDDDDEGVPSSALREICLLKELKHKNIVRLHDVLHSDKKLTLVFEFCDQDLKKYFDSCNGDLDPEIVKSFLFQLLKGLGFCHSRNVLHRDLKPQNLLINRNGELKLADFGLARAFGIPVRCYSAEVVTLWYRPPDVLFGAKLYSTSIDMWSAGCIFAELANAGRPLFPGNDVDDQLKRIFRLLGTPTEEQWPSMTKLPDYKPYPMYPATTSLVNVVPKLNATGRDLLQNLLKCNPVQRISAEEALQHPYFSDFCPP
PLK1, sequence (P53350 whole entry): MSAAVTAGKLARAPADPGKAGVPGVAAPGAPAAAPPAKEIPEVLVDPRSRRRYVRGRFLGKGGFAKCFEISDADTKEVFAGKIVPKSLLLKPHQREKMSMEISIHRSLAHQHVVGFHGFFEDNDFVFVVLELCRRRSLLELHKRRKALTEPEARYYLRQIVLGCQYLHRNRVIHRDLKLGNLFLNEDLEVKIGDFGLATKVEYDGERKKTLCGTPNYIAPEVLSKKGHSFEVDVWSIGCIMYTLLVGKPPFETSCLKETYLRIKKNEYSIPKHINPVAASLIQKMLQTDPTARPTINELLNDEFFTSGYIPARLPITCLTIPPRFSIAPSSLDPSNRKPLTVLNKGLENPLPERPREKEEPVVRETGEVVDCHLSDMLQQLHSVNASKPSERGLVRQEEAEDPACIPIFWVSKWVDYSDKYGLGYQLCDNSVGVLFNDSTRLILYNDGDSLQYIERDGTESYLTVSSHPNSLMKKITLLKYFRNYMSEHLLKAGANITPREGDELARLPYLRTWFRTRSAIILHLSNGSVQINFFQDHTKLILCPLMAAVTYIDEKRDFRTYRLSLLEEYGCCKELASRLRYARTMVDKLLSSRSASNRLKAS

Regarding `COc1ccccc1-c1n[nH]c2nc(N[C@H]3CC[C@H](NS(=O)(=O)CCC(F)(F)F)CC3)nc(OC)c12` [compound 31, 3,3,3-Trifluoro-N-(trans-4-((4-methoxy-3-(2-methoxyphenyl)-1H-pyrazolo[3,4-d]pyrimidin-6-yl)amino)cyclohexyl)propane-1-sulfonamide], the IC50 on ACVR1, on IRAK3, on LYN and at PLK1 was at least 20 µM each time.
In the case of `COc1nc(N[C@H]2CC[C@H](NS(=O)(=O)CC(C)C)CC2)nc2[nH]nc(N3CCOC[C@H]3C)c12` [compound 39, N-(trans-4-((4-Methoxy-3-((R)-3-methylmorpholino)-1H-pyrazolo[3,4-d]pyrimidin-6-yl)amino)cyclohexyl)-2-methylpropane-1-sulfonamide], the IC50 is above 30 µM on hERG; above 39.8 µM at CYP3A4; above 20 µM against Cdk4; at least 20 µM on CAMKK2; 12 µM at CDK5; at least 20 µM on CSNK1A1. In addition, the IC50 at DAPK1, on DDR2, on FYN, on LATS1, on NEK6 and on NUAK1 was at least 20 µM throughout. Besides, the IC50 on PDXK, at PTK2B, at RB1CC1, on RPS6KA6 and at STK4 was at least 20 µM in each case.
